Consider 1 molecule from patent publication US10196685B2, “Methods and systems for delivering process gases to critical process applications” (RASIRC, INC., priority 2014, dated 2019).

The subject of one test is bovine genomic DNA. The following applies: H2O2 505 ppm, 5 hours; for Average Decrease %: three replicates. The method, then: (§1) The initial test manifold was set to the following temperatures: • Zone 1=72° C. (Outlet temperature of SGD) • Zone 3=90° C.
The dilution gas flow rate was set to 5 slm, the RHS carrier gas to 180 sccm, and the SGD carrier gas flow to 1 slm. The RHS was then set to a 35° C. dew point, and the SGD to 30° C., running both gas streams to vent. The furnace and the heat-traced line temperatures were adjusted to achieve the desired gas temperatures. The SGD and RHS systems were allowed to stabilize. Samples were treated and processed as described in the following Examples.
A PCR plate to be used for quantifying amplifiable DNA was prepared with three replicates at each target input level (i.e., ranging from 0 ng to 1,000 ng). In each instance, measured aliquots of an aqueous solution of bovine genomic DNA were added to individual wells of the plate, and then dried. […] The chamber was initially purged for 15 minutes with CDA. […] Finally, the chamber was purged for an additional 15 minutes with CDA. Each well containing treated sample next received an aliquot of liquid reagents needed to carry out PCR amplification reactions. These reagents included: a pair of unlabeled DNA primers capable of amplifying the template; nucleotide triphosphates; buffer and salts; a dual-labeled hydrolysis probe specific for the DNA amplification product; and a thermostable DNA polymerase having 5′-3′ exonuclease activity. Amplification reactions were carried out using procedures familiar to those of ordinary skill in the art, and the appearance of fluorescent signals monitored as a function of time in a real-time format.

Test [1] concerns E. coli. The note with it: 1.7×10^7 cfu E. coli per spot; gas-phase H2O2 505 ppm, H2O 2122 ppm, 60 minutes, 25° C.
Description: The CDA gas pressure was maintained at 25 psig with the pressure regulator. A 0.01 micron filter removed particulates from the gas stream. The MFCs controlled the flow of the carrier gas streams and the dilution gas stream. […] The water temperature was used to control the output of the humidifier. The valves (V-1, V-2, and V-3) were used to send either the dry CDA gas stream, the RHS gas stream, and/or SGD gas stream through the furnace or out to vent. […] TC-3 and TC-4 were used to measure the gas temperature downstream of the SGD. The furnace was used to keep the bacterial samples at temperature to prevent condensation. TC-5 was used to measure the temperature in the quartz furnace. TC-6 was used to measure the gas temperature downstream of the furnace. A pressure gauge (PG-1) was used to monitor the pressure in the furnace. A Teledyne Prototype Analyzer was used to determine stability of the peroxide gas and its temperature was kept at 120° C. […] The boxed sections show the individual heat traced control zones for this experiment.
as §1
The dilution gas flow rate was set to 5 slm, the RHS carrier gas to 180 sccm, and the SGD carrier gas flow to 1 slm. The RHS was then set to a 35° C. dew point, and the SGD to 30° C., running both gas streams to vent. […]

Test [2] has as its system E. coli. The method, then: (§2) A 0.01 micron filter removed particulates from the gas stream. […] The water temperature was used to control the output of the humidifier. […] The furnace was used to keep the bacterial samples at temperature to prevent condensation. […] The boxed sections show the individual heat traced control zones for this experiment.
as §1

The subject of a further test is S. epi. On the procedure:
as §2, §1

In another test the test system is bacterial samples. The following applies: visible mist or fog, droplets condensed onto the sample.

Several values for one entry are separate records, joined by “and”; a condition that tells them apart may be missing. Identical values can stand only once. Like-named read-outs stand apart in the source and are kept apart here.

In the case of `OO` [hydrogen peroxide gas, hydrogen peroxide], the Decrease % is 100% in the test with bovine genomic DNA (Input 1 ng DNA, 25° C.); 98.55% and 99.28% and 94.5% in the test on bovine genomic DNA (Input 10 ng DNA, 25° C.); 99.19% and 99.92% and 99.978% with bovine genomic DNA (Input 100 ng DNA, 25° C.); 99.9957% and 99.9953% and 99.967% in the test on bovine genomic DNA (Input 1000 ng DNA, 25° C.). The molecule further came in with a Remaining % with bovine genomic DNA (Input 1 ng DNA, 25° C.) of 0%. Further, the “Calculated ng After Treatment” value with bovine genomic DNA (Input 1 ng DNA, H2O 2122 ppm, 25° C.) was 0 ng. In addition, the “Average Decrease %” value with bovine genomic DNA (Input 1 ng DNA, 25° C.) amounted to 100.00%; with bovine genomic DNA (Input 10 ng DNA, 25° C.), 97.44%; in the test with bovine genomic DNA (Input 100 ng DNA, 25° C.), 99.70%; in the test on bovine genomic DNA (Input 1000 ng DNA, 25° C.) it was 99.99%. Moreover, the “Reduction of amplifiable DNA” value with bovine genomic DNA (sample containing the greatest amount of starting material) is reported as “about 4 logs”. The “Amplifiable DNA after treatment” value in the test with bovine genomic DNA (sample containing the lowest amount of starting material) was “completely undetectable”. In the test with E. coli [1], the “Growth on tryptic soy agar plates after H202 treatment (bacterial slides)” value is listed as “No Growth”. Besides, the “CONCENTRATION (E. coli in device with H2O2)” value with E. coli [2] (hydrogen peroxide gas 30 minutes, average H2O2 output 561±27 ppm, ≥25° C., stock 2.5 × 10^7) is recorded as “NO GROWTH”. For the same molecule, the “Sterilization result in words” value in the test with E. coli [2] (tests of FIGS. 32 and 33, 30 minutes H2O2 gas) is listed as “completely sterilized”; in the test with S. epi (fifth experiment, 5 hour H2O2 exposure, 518±14 ppm), “sterilized”. Besides, the “CONCENTRATION (S. epi in device with H2O2)” value with S. epi (5 hour H2O2 exposure, average H2O2 output 518±14 ppm, stock 3.5 × 10^6) is reported as “NO GROWTH”; in the test with S. epi (hydrogen peroxide gas 30 minutes, average H2O2 output 561±27 ppm, ≥25° C., stock 5.0 × 10^6, contamination believed), ~10^4 to 10^5 estimated. In the test on bacterial samples, the “Effect on the number of viable organisms” value is “did not significantly reduce the number of viable organisms”.
